Laboratory results reported in US20090247477A1, “Methods of suppressing uv light-induced skin carcinogenesis” (priority 2005, published 2009).

Assays:
[1] = tested on: UVB radiation-induced skin tumors; experiment: UVB-induced skin carcinogenesis in high-risk mice, dietary treatment; format: in vivo, mouse; details: vs control
Procedure: Seeds of broccoli (Brassica oleracea italica, cv. DeCicco) were used to grow sprouts as described in Example 1. Growth was arrested after 3 days by plunging sprouts into boiling water and allowed to boil for ˜30 min. This treatment inactivated the endogenous sprout myrosinase and extracted the glucosinolates. […] The powder was mixed with the mouse diet (powdered AIN 76A) to give the equivalent of 10 μmol (low dose) or 50 μmol (high dose) of glucoraphanin per 3 grams of diet.
Body weights and formation of tumors larger than 1 mm in diameter were determined weekly.
UVB radiation was provided by a bank of UV lamps (FS72T12-UVB-HO, National Biological Corporation, Twinsburg, Ohio) emitting UVB (280-320 nm, 65% of total energy) and UVA (320-375 nm, 35% of total energy). The radiant dose of UVB was quantified with a UVB Daavlin Flex Control Integrating Dosimeter and further calibrated with an IL-1400 radiometer (International Light, Newburyport, Mass.).
The animals were irradiated for 20 weeks on Tuesdays and Fridays with a radiant exposure of 30 mJ/cm^2/session. […]
Tumor volumes were determined by measuring the height, length, and width of each mass that was larger than 1 mm in diameter. The average of the three measurements was used as the diameter and the volume was calculated (v=4πr^3/3). All mice were euthanized on the same day and the size and multiplicity of tumors was determined. […]

glutathione = details: topical extract containing 1 μmol sulforaphane, 24 h, vs vehicle
Excerpt: Female SKH-1 hairless mice (4 weeks old) were obtained from Charles River Breeding Laboratories (Wilmington, Mass.) and were acclimatized in our animal facility for 2 weeks before the start of the experiment. The animals were kept on a 12-h light/12-h dark cycle, 35% humidity, and given free access to water and pelleted AIN 76A diet (Harlan TekLad, free of inducers). All animal experiments were in compliance with the National Institutes of Health Guidelines and were approved by the Johns Hopkins University Animal Care and Use Committee.
The animals were euthanized 24 h later and their dorsal skins were dissected using a rectangular template (2.5×5 cm) and frozen in liquid N2. […] Centrifugation at 14,000 g for 20 min at 4° C. yielded clear supernatant fractions, aliquots of which were used for determination of protein content, enzyme activity, and total glutathione levels as described below for the cell culture experiments.

PE murine keratinocytes = details: 5 μM for 24 h, UVA 10 J/cm^2, PE cells
Procedure: Reactive oxygen intermediates generated by the UV radiation were quantified by the fluorescent probe 2′,7′-dichlorodinitrofluorescein and fluorescence intensity was measured (expressed as a ratio of exposed to non-exposed cells).
PE cells (50,000 per well) were seeded into 24-well plates and grown for 48 h. […] On the day of the experiments, after removing the medium, the cells were incubated with 100 μM 2′,7′-dichlorodinitrofluorescein diacetate in 500 μl of fresh medium (Molecular Probes, Eugene, Oreg.) for 30 min. The medium containing the fluorescent probe was then removed, the cells were washed with DPBS, and exposed to UVA radiation (10 J/cm^2) Control cells were kept in the dark. Cells were detached with trypsin, suspended in 2.0 ml of DPBS, and the intensity of fluorescence was determined in cell suspensions at 520 nm with an excitation of 485 nm in 2-ml cuvettes in a Perkin-Elmer LS50 spectrofluorimeter.

| Compound | inhibition in total tumor volume per mouse ([1]; high dose) [%] | inhibition in total tumor volume per mouse ([1]; low dose) [%] | elevation of total glutathione levels in skin (glutathione) [%] | reduction in reactive oxygen intermediates generated by UV radiation (PE murine keratinocytes) [%] |
| --- | --- | --- | --- | --- |
| C[S+]([O-])CCCC/C(=N\OS(=O)(=O)O)S[C@@H]1O[C@H](CO)[C@@H](O)[C@H](O)[C@H]1O (stereo partly shown) [glucoraphanin] | 70 | 70 | – | – |
| C[S+]([O-])CCCCN=C=S (stereo not shown) [sulforaphane] | – | – | ~15 | 50 |
